Laboratory results as given in US8492334B2, “Sustained intraocular delivery of drugs from biodegradable polymeric microparticles” (Yale University, priority 2007, dated 2013).
Structures can show the parent of a compound that is named as a salt. Where two headings read alike, the source gives them in different places.

B1: NT-3: neurotrophic factor in the NGF family of neurotrophins (protein, UniProt P20783 139-257, looked up)
Neurotrophin-3: YAEHKSHRGEYSVCDSESLWVTDKSSAIDIRGHQVTVLGEIKTGNSPVKQYFYETRCKEARPVKNGCRGIDDKHWNSQCKTSQTYVRALTSENNKLVGWRWIRIDTSCVCALSRKIGRT
B2: NT-4: neurotrophic factor in the NGF family of neurotrophins (protein, UniProt P34130 81-210, looked up)
Neurotrophin-4: GVSETAPASRRGELAVCDAVSGWVTDRRTAVDLRGREVEVLGEVPAAGGSPLRQYFFETRCKADNAEEGGPGAGGGGCRGVDRRHWVSECKAKQSYVRALTADAQGRVGWRWIRIDTACVCTLLSRTGRA
B3: BDNF: brain-derived neurotrophic factor, a protein neurotrophic factor (protein, UniProt P23560 19-247, looked up)
Neurotrophic factor BDNF …: APMKEANIRGQGGLAYPGVRTHGTLESVNGPKAGSRGLTSLADTFEHVIEELLDEDQKVRPNEENNKDADLYTSRVMLSSQVPLEPPLLFLLEEYKNYLDAANMSMRVRRHSDPARRGELSVCDSISEWVTAADKKTAVDMSGGTVTVLEKVPVSKGQLKQYFYETKCNPMGYTKEGCRGIDKRHWNSQCRTTQSYVRALTMDSKKRIGWRFIRIDTSCVCTLTIKRGR

Assays:
[1] = eye drops, cited from earlier work
[2] = administered topically as a solution; cited from earlier work
[3] = Release of timolol maleate in vitro from microspheres; format: physicochemical; settings: 20% w/w timolol maleate to PLGA; AOT 147 mM in first emulsion step, or Span 20 in its place
Procedure: In 1.5 ml eppendorf tubes, 10 mg of timolol containing or blank microparticles were reconstituted with 1 ml of phosphate buffered saline (PBS). Samples were prepared in triplicate. The samples were incubated at 37° C. on a labquake rotating shaker (Barnstead/Thermolyne; Dubuque, Iowa, USA). At specific time points (1, 3, 5, and 8 hours; 1, 2, 3, 5, and 7 days; and once every 7 days thereafter until no pellets remained), the samples were centrifuged and the supernatant collected. 1 ml of PBS was added to the replace the withdrawn supernatant and the microparticles were resuspended and returned to the shaker. Supernatants for each of the sets of microspheres was frozen and stored at −80° C. for subsequent analysis using UV spectroscopy at 293 nm.
The drug loading was 20% weight of timolol maleate to weight of polymer. The particles were stored in deionized water at 37° C. Following centrifugation at predetermined time points, the supernatant was extracted and timolol maleate content measured. FIG. 3 depicts the same values expressed as a percentage of the loading values in FIG. 1.

[4] = tested on: adult rat retinal ganglion cells; settings: cited from earlier work; for effect on survival of RGCs after axotomy: intraocular administration; for delay of onset of axotomy-induced RGC death: intraocular administration at the time of axotomy

Molecule	effect on survival of RGCs after axotomy [4]	delay of onset of axotomy-induced RGC death [4]	other results
CC(C)(C)NC[C@H](O)COc1nsnc1N1CCOCC1 [Timolol maleate]	–	–	systemic absorption of the administered drug [1]: approximately 80%; topically administered drug reaching the aqueous humor [1]: less than 1%; systemic absorption of the administered drug ([1]; listed as timolol maleate): ~80%; average IOP reduction [2]: 20-35%
Span 20	–	–	effect of added surfactant on loading or release of timolol maleate [3]: no significant effect
B1	did not modify the survival of RGCs	–	–
B2	neuroprotective effect	approximately 3 days	–
B3	neuroprotective effect	approximately 3 days	–
